According to ChEMBL document CHEMBL1177693, “Antimalarials from nature” (Bioorg Med Chem, 2009):
≈ marks a conversion by molar mass, not a printed value.

Legend:
Plasmodium falciparum [1] = experiment: Antimalarial activity against Plasmodium falciparum K1; type: functional, organism-based
Plasmodium falciparum [2] = experiment: Antimalarial activity against Plasmodium falciparum NF54; type: functional, organism-based
Plasmodium vivax = experiment: Antimalarial activity against Plasmodium vivax infected in human HepG2-A16 cells assessed as reduction of trophozoites level; type: functional; parameters: scale not given: the % may be the effect or the level left
Plasmodium falciparum [3] = experiment: Antimalarial activity against chloroquine-resistant Plasmodium falciparum; type: functional, organism-based
Plasmodium berghei = experiment: Antiplasmodial activity against chloroquine-sensitive Plasmodium berghei; type: functional, organism-based
Plasmodium falciparum [4] = experiment: Antimalarial activity against Plasmodium falciparum T9-96; type: functional, organism-based
[5] = target: T1, Enoyl-acyl-carrier protein reductase (Plasmodium falciparum, UniProt Q965D5); experiment: Inhibition of Plasmodium falciparum Fabl
T1 sequence (Q965D5 whole entry): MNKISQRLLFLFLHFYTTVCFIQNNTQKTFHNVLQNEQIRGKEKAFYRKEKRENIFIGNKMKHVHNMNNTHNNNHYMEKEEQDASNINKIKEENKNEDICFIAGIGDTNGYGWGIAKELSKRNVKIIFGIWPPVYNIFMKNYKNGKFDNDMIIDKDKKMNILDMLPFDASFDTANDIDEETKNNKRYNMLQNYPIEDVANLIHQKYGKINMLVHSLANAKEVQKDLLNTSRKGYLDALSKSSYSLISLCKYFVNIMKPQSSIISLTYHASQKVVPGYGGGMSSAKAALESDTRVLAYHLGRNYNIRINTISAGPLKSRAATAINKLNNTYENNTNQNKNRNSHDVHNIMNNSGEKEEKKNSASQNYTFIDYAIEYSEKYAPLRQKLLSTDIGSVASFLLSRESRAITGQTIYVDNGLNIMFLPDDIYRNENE

Plasmodium falciparum [6] = experiment: Antimalarial activity against Plasmodium falciparum 3D7; type: functional, organism-based
Plasmodium falciparum [7] = experiment: Antimalarial activity against chloroquine-resistant Plasmodium falciparum Dd2; type: functional, organism-based
Plasmodium falciparum [8] = experiment: Antimalarial activity against chloroquine-sensitive Plasmodium falciparum PoW; type: functional, organism-based
Plasmodium falciparum [9] = experiment: Antimalarial activity against Plasmodium falciparum infected in perorally dosed mice (Mus musculus) administered for 4 days; type: functional; conditions: po, 96 h
Plasmodium falciparum [10] = experiment: Antimalarial activity against Plasmodium falciparum infected in intravenously dosed mice (Mus musculus) administered for 4 days; type: functional; conditions: iv, 96 h
[11] = Cytotoxicity against erythrocytes assessed as morphological changes; type: cell-based; conditions: Erythrocyte
Plasmodium falciparum [12] = experiment: Antimalarial activity against Plasmodium falciparum infected in erythrocytes; type: functional, organism-based
Plasmodium falciparum [13] = experiment: Antimalarial activity against chloroquine-sensitive Plasmodium falciparum 3D7; type: functional, organism-based
Plasmodium falciparum [14] = experiment: Antimalarial activity against multidrug-resistant Plasmodium falciparum K1; type: functional, organism-based
Plasmodium falciparum [15] = experiment: Antimalarial activity against Plasmodium falciparum after 32 hrs; type: functional, organism-based
Plasmodium falciparum [16] = experiment: Antimalarial activity against Plasmodium falciparum after 72 hrs; type: functional, organism-based
Plasmodium falciparum [17] = experiment: Antimalarial activity against Plasmodium falciparum after 48 hrs; type: functional, organism-based
Plasmodium falciparum [18] = experiment: Antimalarial activity against chloroquine-susceptible Plasmodium falciparum D6; type: functional, organism-based
Plasmodium falciparum [19] = experiment: Antimalarial activity against chloroquine-resistant Plasmodium falciparum W2; type: functional, organism-based
Plasmodium falciparum [20] = experiment: Antimalarial activity against Plasmodium falciparum FCA; type: functional, organism-based
Plasmodium falciparum [21] = experiment: Antimalarial activity against chloroquine-resistant Plasmodium falciparum FCB1; type: functional, organism-based; conditions: FcB1/Columbia
Plasmodium falciparum [22] = experiment: Antimalarial activity against Plasmodium falciparum FCR3F86; type: functional, organism-based
Plasmodium falciparum [23] = experiment: Antimalarial activity against Plasmodium falciparum D6; type: functional, organism-based
Plasmodium falciparum [24] = experiment: Antimalarial activity against Plasmodium falciparum W2; type: functional, organism-based
Plasmodium falciparum [25] = experiment: Antimalarial activity against drug-susceptible Plasmodium falciparum NF54 infected in erythrocytes; type: functional, organism-based
Plasmodium falciparum [26] = experiment: Antimalarial activity against multidrug-resistant Plasmodium falciparum K1 infected in erythrocytes; type: functional, organism-based

COc1c2c(c(O)c3c4c(c(C)cc13)[C@@H]1O[C@@]3(C(OC)OC)O[C@@H]1[C@@](O[C@H]1C[C@@H](O)[C@@](O)(C(C)=O)[C@H](C)O1)(O4)[C@@]31CO1)C(=O)[C@@H](O)C[C@@H]2O[C@H]1C[C@@](C)(O)[C@H](OC(C)=O)[C@H](C)O1 [TRIOXACARCIN A]
IC50 (Plasmodium falciparum [1]): 0.0015 µg/mL (≈ 0.00171 µM) | IC50 (Plasmodium falciparum [2]): 0.0017 µg/mL (≈ 0.00194 µM)

CC(CCC1(O)C[C@@H]2C[C@H]3[C@@H]4CCC5=CC(=O)CC[C@]5(C)[C@H]4CC[C@]3(C)[C@H]2[C@@H]1C)CO[C@@H]1O[C@H](CO)[C@@H](O)[C@H](O)[C@H]1O (some centres undefined)
Activity (Plasmodium vivax): 39%

COc1ccc([C@@H]2Oc3cc(O)cc(O)c3C(=O)[C@H]2[C@H]2C(=O)c3c(O)cc(O)cc3O[C@H]2c2ccc(O)cc2)cc1 [SIKOKIANIN B]
IC50 (Plasmodium falciparum [3]): 0.54 µg/mL (≈ 0.97 µM)

COC(C)(C)[C@@H]1C=C2C(=O)[C@H]3O[C@H]3C3C=CC(C2C(=O)/C1=C/CO)[C@H]3O (some centres undefined)
ED50 (Plasmodium berghei): 5.2 mg/kg | IC50 (Plasmodium berghei): 2.1 nM

CO[C@@H]1C=C[C@]23c4cc5c(cc4[C@@H](O)N(C[C@@H]2O)[C@H]3C1)OCO5
IC50 (Plasmodium falciparum [4]): 0.34 µg/mL (≈ 1.07 µM)

O=c1cc(-c2ccc(O)c(O)c2)oc2cc(O[C@@H]3O[C@H](CO)[C@@H](O)[C@H](O)[C@H]3O)cc(O)c12 [GALUTEOLIN]
IC50 [5]: 22300 nM

CCCCCCCc1cc(/C=C2\N=C(c3ccc[nH]3)C=C2OC)[nH]c1C [HEPTYL PRODIGIOSIN]
IC50 (Plasmodium falciparum [6]): 70 nM

OCC1=C[C@@H]2OCC[C@@H]2[C@@H]1CO
IC50 [5]: 588000 nM

COc1ccc(-c2cc(=O)c3c(O)cc(O)cc3o2)cc1 [ACACETIN]
IC50 (Plasmodium falciparum [7]): 12.6 µg/mL (≈ 44.3 µM) | IC50 (Plasmodium falciparum [8]): 5.5 µg/mL (≈ 19.3 µM)

C[C@H]1[C@@H](CC(COC(=O)c2cc[n+]([O-])cc2)C[C@H]2O[C@@H]3O[C@]4(C)CC[C@H]5[C@H](C)CC[C@@H]([C@H]2C)[C@@]35OO4)O[C@@H]2O[C@]3(C)CC[C@H]4[C@H](C)CC[C@@H]1[C@@]24OO3 (some centres undefined)
ED50 (Plasmodium falciparum [9]): 2 mg/kg | ED50 (Plasmodium falciparum [10]): 0.8 mg/kg

CC(C)c1ccc2c(c1)CC[C@H]1[C@](C)(CO)CCC[C@]21C [POMIFERIN A]
IC50 [11]: 28000 nM | IC50 (Plasmodium falciparum [12]): 25600 nM

COc1cc(O)c2c(c1)O[C@H](c1ccccc1)CC2=O [PINOSTROBIN]
IC50 (Plasmodium falciparum [13]): > 100000 nM

Cc1c2ccncc2c(C)c2c1[nH]c1ccccc12 [ELLIPTECINE]
IC50 (Plasmodium falciparum [14]): 73 nM

CC(C)=CCC/C(C)=C/CC/C(C)=C/CC[C@@]1(C)[C@H](CCCO)/C(=C(/C)C=O)CC[C@]1(C)O [IRIDAL]
IC50 (Plasmodium falciparum [15]): 14 µg/mL (≈ 30.5 µM) | IC50 (Plasmodium falciparum [16]): 1.8 µg/mL (≈ 3.92 µM) | IC50 (Plasmodium falciparum [17]): 26 µg/mL (≈ 56.7 µM)

CO[C@H]1C[C@@H]([C@@H](O)[C@@](C)(OC)[C@H](C)OC)O[C@]2(O[C@](C)([C@H]3CC[C@@H]([C@H]4CC[C@H]([C@H]5O[C@](C)(O)[C@H](C)[C@@H](O)[C@@H]5C)O4)O3)[C@H](OC)[C@H]2C)[C@H]1C
IC50 (Plasmodium falciparum [18]): 0.1 µg/mL (≈ 0.145 µM) | IC50 (Plasmodium falciparum [19]): 0.1 µg/mL (≈ 0.145 µM)

C=C1C(=O)O[C@@H]2/C=C(/C)C(=O)/C=C/[C@](C)(O)C[C@@H](OC(=O)C(C)C)[C@@H]12 [TAGITININ C]
IC50 (Plasmodium falciparum [20]): 0.33 µg/mL (≈ 0.947 µM)

O=C(O[C@H]1Cc2c(O)cc(O)cc2O[C@@H]1c1ccc(O)c(O)c1)c1cc(O)c(O)c(O)c1 [CATECHIN GALLATE]
IC50 (Plasmodium falciparum [21]): 1000 nM

Cc1cc(=O)c(O)cc2c1C[C@H]1CC(C)(C)/C=C/C[C@@]3(C)Oc4cc(O)c(=O)cc(C)c4C[C@@H]3C[C@H](O)[C@]1(C)O2 [PYCNIDIONE]
IC50 (Plasmodium falciparum [22]): 280 nM | IC50 (Plasmodium falciparum [23]): 750 nM | IC50 (Plasmodium falciparum [24]): 370 nM

COc1cc(/C=C2/Cc3c(OC(C)=O)cc(OC(C)=O)cc3O2)cc(OC)c1OC(C)=O
IC50 (Plasmodium falciparum [25]): 180 nM | IC50 (Plasmodium falciparum [26]): 7 nM

O=c1c(-c2ccc(O)cc2)coc2cc(O)cc(O)c12 [GENISTEIN]
IC50 (Plasmodium falciparum [7]): 4.1 µg/mL (≈ 15.2 µM) | IC50 (Plasmodium falciparum [8]): 2 µg/mL (≈ 7.4 µM)

COc1ccc([C@H]2Oc3cc(O)cc(O)c3C(=O)[C@@H]2[C@H]2C(=O)c3c(O)cc(O)cc3O[C@@H]2c2ccc(O)cc2)cc1 [SIKOKIANIN C]
IC50 (Plasmodium falciparum [3]): 0.56 µg/mL (≈ 1.01 µM)

CC(CO)CCC(=O)[C@@H](C)[C@H]1[C@H](O)C[C@H]2[C@@H]3CCC4=CC(=O)CC[C@]4(C)[C@H]3CC[C@]12C (some centres undefined)
Activity (Plasmodium vivax): 47%
